In PMC9997933, “Anticancer derivative of the natural alkaloid, theobromine, inhibiting EGFR protein: Computer-aided drug discovery approach” (PLOS ONE, 2023):

Biological target: EGFR (Homo sapiens, UniProt P00533)
Assay: in vitro EGFR inhibition, Human EGFR ELISA kit
Assay type: biochemical

EGFR, sequence (P00533 25-1210): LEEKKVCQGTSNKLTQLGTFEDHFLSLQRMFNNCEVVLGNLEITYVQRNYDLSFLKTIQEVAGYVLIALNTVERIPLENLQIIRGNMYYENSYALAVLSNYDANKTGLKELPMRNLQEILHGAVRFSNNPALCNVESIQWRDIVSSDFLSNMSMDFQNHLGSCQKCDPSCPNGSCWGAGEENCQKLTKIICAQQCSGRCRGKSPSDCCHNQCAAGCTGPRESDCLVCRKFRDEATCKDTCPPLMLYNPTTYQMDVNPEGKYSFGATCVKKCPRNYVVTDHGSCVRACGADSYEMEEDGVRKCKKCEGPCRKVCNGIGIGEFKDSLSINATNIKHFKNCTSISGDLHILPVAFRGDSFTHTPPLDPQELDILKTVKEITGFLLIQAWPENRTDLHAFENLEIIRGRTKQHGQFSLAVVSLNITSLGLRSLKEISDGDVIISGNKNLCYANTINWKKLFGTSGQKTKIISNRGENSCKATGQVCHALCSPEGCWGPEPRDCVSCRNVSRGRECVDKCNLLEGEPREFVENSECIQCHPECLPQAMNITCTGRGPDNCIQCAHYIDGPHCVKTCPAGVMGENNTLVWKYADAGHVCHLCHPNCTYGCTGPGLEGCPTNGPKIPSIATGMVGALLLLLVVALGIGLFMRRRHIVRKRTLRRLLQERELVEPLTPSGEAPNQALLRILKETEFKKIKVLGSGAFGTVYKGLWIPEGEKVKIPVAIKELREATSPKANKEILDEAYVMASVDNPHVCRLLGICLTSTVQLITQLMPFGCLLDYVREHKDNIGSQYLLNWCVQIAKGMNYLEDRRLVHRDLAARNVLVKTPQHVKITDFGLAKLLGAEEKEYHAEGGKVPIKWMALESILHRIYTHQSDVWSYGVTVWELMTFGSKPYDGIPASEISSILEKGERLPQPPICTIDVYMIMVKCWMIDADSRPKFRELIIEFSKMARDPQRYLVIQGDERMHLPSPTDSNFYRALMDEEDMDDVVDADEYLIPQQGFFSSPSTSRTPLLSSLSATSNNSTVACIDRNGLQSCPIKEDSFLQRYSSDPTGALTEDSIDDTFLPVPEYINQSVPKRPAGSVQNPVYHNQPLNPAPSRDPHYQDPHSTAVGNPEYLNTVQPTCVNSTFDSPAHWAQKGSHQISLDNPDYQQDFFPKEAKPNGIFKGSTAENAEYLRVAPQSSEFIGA

## Cc1cccc(NC(=O)Cn2c(=O)c3c(ncn3C)n(C)c2=O)c1 [T-1-MTA]
  IC50: 22.9 nM
